Assay results as given in patent US20160250128A1, “TARGETED CAPSULES FOR THE DELIVERY OF SKIN WHITENING AGENTS IN THE SKIN” (INFINITEC ACTIVOS, S.L., priority 2013, published 2016).

Experiments:
[1] = tested on: cultured melanocytes; conditions: cited from earlier work
[2] = tested on: Human melanocytes; test: Melanin determination in treated melanocytes; type: cell-based; conditions: for % MELANINE CONTENT: determined as in examples 4 and 5, concentration not given
Experimental: (§1) Day 1—Human melanocytes are rise by trypsinization and centrifuge at 1500 rpm (433×g) in an Allegra X-22R (Beckman Coulter) centrifuge during 5 minutes, and then are resuspended in 1 ml of a complete culture medium to count the number of cells. A volume of 10 μl of the cells solution was dyed with Trypan Blue colorant and the cells are counted with a hemocytometer. Then a cell solution is prepared at a concentration of 2.5×10^5 cells/ml in a complete medium and 100 μl of the cell suspension is seed in wells of 96 well plates. The plates are incubated at 37° C. in a 5% CO2 atmosphere.
Day 2—The seed cells are washed and treated with the different products in basal conditions and promelanogenic conditions. For that, the medium is removed of wells and 100 μl of the products in basal medium with 0.5% of FBS is added. Previously, the test products are solubilised in the same medium. Arbutin is solubilised in ethanol.
The products are tested at 3 different concentrations in the presence and absence of the melanogenic inductor (100 μM), i.e. isobutyl methyl-xantine (IBMX). The plates are incubated 37° C. and 5% CO2 during 5 days. The experiments are carried out using 4 wells per condition. The melanin accumulation inside the cells is monitored daily by optical microscopy.
Days 3 and 4—All treatments are renewed every 24 hours.
In order to determine the melanin content in cells treated as described in example 4, the medium is removed from each well and cells are washed with PBS 1N and incubated during 3 days at 37° C. facilitating the solubilisation of the melanin in NaOH.
Day 7—Once the solubilisation of melanin is complete, 50 μl de H2O2 MilliQ is added per well and the content is determined by absorbance using a Synergy II (Biotek Instruments Inc., Winooski, USA) at 390 nm. The mode and SD is calculated for each
The activity of several peptides of formula (II) (listed in table 3 below) to reduce melanine was determined as explained in example 5 after treating the cells as explained in example 4.

[3] = tested on: cultured cells; conditions: cited from earlier work
[4] = tested on: facial hyperpigmentation; conditions: clinical studies; cited from earlier work
[5] = tested on: human keratinocytes; test: Cytotoxicity assay (MTT); type: cell-based; conditions: positive control 0.1% SDS, 48 h
Experimental: (§2) Human dermal fibroblasts and human keratinocytes were used. The isolated cells were cultured in DMEM culture medium supplemented with 10% FCS and were incubated at 37° C. for maintenance treatment. Untreated cells were used as negative control. The positive control was 0.1% SDS. The microcapsules as obtained in Example 1 were tested in the DMEM culture medium at two concentrations: 0.03% and 0.3%. These weight percentages refer to the weight of the microcapsule in relation to the total weight.
(§3) Cells were seeded at 20000 cells per well in a 96-well plate. 24 hours after seeding, cells were incubated under the conditions described above. After 48 h of incubation at 37° C., the culture medium was removed and the MTT reagent was added. Cells were incubated 2 hours at 37° C. DMSO was then added and the absorbance of the formed formazan salt was measured at A 570 nm. Lower absorbance values correspond to cells with lower metabolic activity, which correlates with an increased damage and, therefore, with an increased cytotoxic effect. Thus, the amount of living cells is proportional to the amount of formazan produced.

[6] = tested on: Human dermal fibroblasts; test: Cytotoxicity assay (MTT); type: cell-based; conditions: positive control 0.1% SDS, 48 h
Experimental: as §2, §3

[7] = tested on: Human melanocytes; test: Cell viability of treated melanocytes (CCK-8); type: cell-based; conditions: IBMX 100 μM alone, control = 100
Experimental: as §1
Day 2—The seed cells are washed and treated with the different products in basal conditions and promelanogenic conditions. […]
The products are tested at 3 different concentrations in the presence and absence of the melanogenic inductor (100 μM), i.e. isobutyl methyl-xantine (IBMX). […] The melanin accumulation inside the cells is monitored daily by optical microscopy. […]
Day 5—Determination of cell viability: In order to determine de number of viable cells, 10 μl of CCK-8 (WST-8) is added in each well. The plates are incubated at 37° C. during 1 hour and the absorbance is measured at 450 nm using Synergy II multimode (Biotek Instruments Inc., Winooski, Estados Unidos). The mode and SD is calculated for each concentration using Microsoft Excel application (see FIG. 2 and table 2)

## C=CCCCCCCCCC(=O)N[C@@H](Cc1ccccc1)C(=O)O [Sepiwhite, N-undecyl-10-enoyl-L-phenylalanine]
[1]
  melanin production: reduces melanin production in cultured melanocytes

## Palm-Ile-Ser-Leu-Leu-Asp-Ala-Gln-Ser-NH2 (ISLLDAQS; HELM PEPTIDE1{[CCCCCCCCCCCCCCCC(=O)[*:2]].I.S.L.L.D.A.Q.S.[am]}$$$$V2.0; SMILES CCCCCCCCCCCCCCCC(=O)N[C@H](C(=O)N[C@@H](CO)C(=O)N[C@@H](CC(C)C)C(=O)N[C@@H](CC(C)C)C(=O)N[C@@H](CC(=O)O)C(=O)N[C@@H](C)C(=O)N[C@@H](CCC(N)=O)C(=O)N[C@@H](CO)C(N)=O)[C@@H](C)CC) [peptide of formula (II)]
[2]
  % MELANINE CONTENT: 85%

## NC(=O)c1cccnc1 [Niacinamide]
[3]
  melanosome transfer: inhibit melanosome transfer in cultured cells
[4]
  appearance of hyperpigmented spots: reduce the appearance of hyperpigmented spots

## Palm-Ile-Ser-Leu-Leu-Asp-(d)Ala-Gln-Ser-NH2 (ISLLDAQS; HELM PEPTIDE1{[CCCCCCCCCCCCCCCC(=O)[*:2]].I.S.L.L.D.[dA].Q.S.[am]}$$$$V2.0; SMILES CCCCCCCCCCCCCCCC(=O)N[C@H](C(=O)N[C@@H](CO)C(=O)N[C@@H](CC(C)C)C(=O)N[C@@H](CC(C)C)C(=O)N[C@@H](CC(=O)O)C(=O)N[C@H](C)C(=O)N[C@@H](CCC(N)=O)C(=O)N[C@@H](CO)C(N)=O)[C@@H](C)CC) [peptide of formula (II)]
[2]
  % MELANINE CONTENT: 78%

## CCCCCCCCCCCCOS(=O)(=O)[O-].[Na+] [SDS]
[5]
  % cell viability: 13.0%
[6]
  % cell viability: 30.0%

## Ac-Ile-Ser-Leu-Leu-Asp-Ala-Gln-Ser-NH2 (Ac-ISLLDAQS-NH2) [peptide of formula (II)]
[2]
  % MELANINE CONTENT: 87%

## CC(C)Cn1c(=O)n(C)c(=O)c2[nH]cnc21 [Isobutyl methyl-xantine (IBMX), Isobutyl methyl-xantine, reference compound]
[2]; IBMX 100 μM alone, control = 100
  Melanin content (%): 174 ± 12%
[7]
  Cell viability: 90%

## Ac-Ile-Ser-Leu-Leu-Asp-(d)Ala-Gln-Ser-NH2 (ISLLDAQS; HELM PEPTIDE1{[ac].I.S.L.L.D.[dA].Q.S.[am]}$$$$V2.0; SMILES CC[C@H](C)[C@H](NC(C)=O)C(=O)N[C@@H](CO)C(=O)N[C@@H](CC(C)C)C(=O)N[C@@H](CC(C)C)C(=O)N[C@@H](CC(=O)O)C(=O)N[C@H](C)C(=O)N[C@@H](CCC(N)=O)C(=O)N[C@@H](CO)C(N)=O) [peptide of formula (II)]
[2]
  % MELANINE CONTENT: 80%

## Ac-Ile-Ser-(d)Leu-Leu-Asp-(d)Ala-Gln-Ser-NH2 (ISLLDAQS; HELM PEPTIDE1{[ac].I.S.[dL].L.D.[dA].Q.S.[am]}$$$$V2.0; SMILES CC[C@H](C)[C@H](NC(C)=O)C(=O)N[C@@H](CO)C(=O)N[C@H](CC(C)C)C(=O)N[C@@H](CC(C)C)C(=O)N[C@@H](CC(=O)O)C(=O)N[C@H](C)C(=O)N[C@@H](CCC(N)=O)C(=O)N[C@@H](CO)C(N)=O) [peptide of formula (II)]
[2]
  % MELANINE CONTENT: 68%

## Palm-Ile-Ser-(d)Leu-Leu-Asp-(d)Ala-Gln-Ser-NH2 (ISLLDAQS; HELM PEPTIDE1{[CCCCCCCCCCCCCCCC(=O)[*:2]].I.S.[dL].L.D.[dA].Q.S.[am]}$$$$V2.0; SMILES CCCCCCCCCCCCCCCC(=O)N[C@H](C(=O)N[C@@H](CO)C(=O)N[C@H](CC(C)C)C(=O)N[C@@H](CC(C)C)C(=O)N[C@@H](CC(=O)O)C(=O)N[C@H](C)C(=O)N[C@@H](CCC(N)=O)C(=O)N[C@@H](CO)C(N)=O)[C@@H](C)CC) [peptide of formula (II)]
[2]
  % MELANINE CONTENT: 65%
